Laboratory results as given in BindingDB's records for doi:10.1016/s0960-894x(01)00239-6 (Dupont Pharmaceuticals, 2001).

Each molecule was assayed against T1, Gag-Pol polyprotein [588-1027]/[588-1147] (Human immunodeficiency virus 1, UniProt P04585) (assay: HIV-1 RT Assay). Conditions: pH 8.2; 37 °C.
T1 construct: 588-1027; 588-1147
Description: The IC50 of reverse transcriptase is the concentration that inhibits 50% of recombinant HIV-1 RT RNA-directed DNA polymerase activity in vitro.

| Compound | IC50 [nM] |
| --- | --- |
| C[C@@H]1O[C@](/C=C/C2CC2)(C(F)(F)F)c2c(ccc(F)c2F)NC1=O [(3S,5S)-5-[(E)-2-cyclopropylethenyl]-6,7-difluoro-3-methyl-5-(trifluoromethyl)-1,2,3,5-tetrahydro-4,1-benzoxazepin-2-one] | 173 |
| CC[C@@H]1O[C@](/C=C/C2CC2)(C(F)(F)F)c2cc(F)ccc2NC1=O [(3S,5S)-5-[(E)-2-cyclopropylethenyl]-3-ethyl-7-fluoro-5-(trifluoromethyl)-1,2,3,5-tetrahydro-4,1-benzoxazepin-2-one] | 151 |
| C[C@@H]1O[C@](/C=C/C2CC2)(C(F)(F)F)c2cc(F)ccc2NC1=O [(3S,5S)-5-[(E)-2-cyclopropylethenyl]-7-fluoro-3-methyl-5-(trifluoromethyl)-1,2,3,5-tetrahydro-4,1-benzoxazepin-2-one] | 129 |
| C[C@@H]1O[C@](/C=C/C2CC2)(C(F)(F)F)c2cc(Cl)ccc2NC1=O [(3S,5S)-7-chloro-5-[(E)-2-cyclopropylethenyl]-3-methyl-5-(trifluoromethyl)-1,2,3,5-tetrahydro-4,1-benzoxazepin-2-one] | 46 |
| CC[C@@H]1O[C@](/C=C/C2CC2)(C(F)(F)F)c2cc(Cl)ccc2NC1=O [(3S,5S)-7-chloro-5-[(E)-2-cyclopropylethenyl]-3-ethyl-5-(trifluoromethyl)-1,2,3,5-tetrahydro-4,1-benzoxazepin-2-one] | 185 |
